Structures can show the parent of a compound that is named as a salt.
Columns and labels:
Aspergillus species = assay: Minimum inhibitory concentration (MIC) assay, filamentous fungi; assay type: cell-based; conditions: antifungal activity, lowest concentration at which 75% inhibition of growth is observed after 48 h
Method: (§1) The assays described below were used to measure the minimum inhibitory concentration (MIC) of a compound necessary to inhibit visible growth of the organism tested. These assays are adapted from NCCLS protocols M7-A4 and M27-A (NCCLS vol 17:9 and vol 17:2) as modified by Sandven, S., Clin. Micro. (1999) 37:12, p. 3856–3859. MIC values for Aspergillus species were determined using NCCLS protocol M38-P.
(§2) All compounds were dissolved in 100% DMSO to a stock concentration of 10 mM and used fresh stock compounds in powder form were kept frozen until needed and used freshly. When used for test purposes, compounds were diluted in the appropriate media depending on the organism being tested.
(§3) For yeast and aspergillus species, seven 1:2 serial dilutions of compound in appropriate media buffered with MOPS at pH 7.0 were prepared such that the final starting test compound concentrations were 44.4 μM for yeast and 50 μM aspergillus species. For bacteria, dilutions were made in growth media used for the particular bacteria being tested.
Inoculums are made by incubating Aspergillus species for 7 days at 35° C. on potato dextrose agar slants. Slants are then covered with 1.0 mL of 0.85% saline, one drop of Tween 20 is added and colonies are teased with a sterile transfer loop to create a suspension which is allowed to sit for 5 min so heavier particles can drop out. The upper suspension is separated and adjusted to an optical density of 0.09 to 0.11. The resulting suspension is diluted 1:50, which yields 2× the final inoculum needed. Micro dilution trays are prepared as with yeast and incubated for 48 h at 35° C. For our purposes the MIC is defined as the lowest compound concentration at which 75% inhibition of growth is observed after 48 h.

bacteria = assay: Minimum inhibitory concentration (MIC) assay, bacteria; assay type: cell-based
Method: as §1, §2, §3
Five well-separated colonies from a 24 h Sabouraud Dextrose plate incubated at 35° C. were picked and resuspended into 2 mL of normal saline. The O.D.530 was read and the culture was adjusted to 0.5 McFarland units with normal saline. A 1:2000 dilution was made with RPMI 1640 media buffered with MOPS at pH 7.0 and 100 μL of this inoculum preparation was added to an equal volume of test compound-containing media. 25 μL of the redox indicator Alamar Blue (Biosource International) was added to each well and the plates were incubated for 48 h at 35° C. Wells having yeast growth changed color from blue to pink.
Inoculums are made in the same manner as yeast except all dilutions are made in normal saline, with a final dilution of 1:200 and an inoculum of 10 μL.

Compound	MIC (Aspergillus species)	MIC (bacteria)
C/N=C(\N)NCCCNC(=O)c1cc2cc(NC(=O)c3cc4cc(C(=O)NCCNC(=N)NC)ccc4[nH]3)ccc2[nH]1 [Compound 68, 1H-Indole-2,5-dicarboxylic acid 5-{[2-(N′-methyl-guanidino)-ethyl]-amide} 2-({2-[3-(N′-methyl-guanidino)-propylcarbamoyl]-1H-indol-5-yl}-amide)]	≤ 50 µM	≤ 45.5 µM
C/N=C(\NC)NCCCNC(=O)c1cc2cc(NC(=O)c3cc4cc(C(=O)NCCN/C(=N/C)NC)ccc4[nH]3)ccc2[nH]1 [Compound 69, 1H-Indole-2,5-dicarboxylic acid 2-{[2-(N′,N″-dimethyl-guanidino)-ethyl]-amide} 5-({2-[3-(7N′,N″-dimethyl-guanidino)-propylcarbamoyl]-1H-indol-5-yl}-amide)]	≤ 50 µM	≤ 45.5 µM
N=C(N)NCCCNC(=O)c1ccc2[nH]c(C(=O)Nc3ccc4cc(C(=O)NCCCNC(=N)N)[nH]c4c3)cc2c1 [Compound 72, 1H-Indole-2,5-dicarboxylic acid 5-[(3-guanidino-propyl)-amide] 2-{[2-(3-guanidino-propylcarbamoyl)-1H-indol-6-yl-]-amide}]	≤ 50 µM	≤ 45.5 µM
CNC(=N)NCCCNC(=O)c1ccc2[nH]c(C(=O)Nc3ccc4cc(C(=O)NCCCNC(=N)NC)[nH]c4c3)cc2c1 [Compound 73, 1H-Indole-2,5-dicarboxylic acid 5-[(3-(N′-methyl-guanidino)-propyl)-amide] 2-{[2-(3-(N′-methyl-guanidino)-propylcarbamoyl)-1H-indol-6-yl-]-amide}]	≤ 50 µM	≤ 45.5 µM
C/N=C(\NC)NCCCNC(=O)c1ccc2[nH]c(C(=O)Nc3ccc4cc(C(=O)NCCCN/C(=N/C)NC)[nH]c4c3)cc2c1 [Compound 74, 1H-Indole-2,5-dicarboxylic acid 5-[(3-(N N′,N″-dimethyl-guanidino)-propyl)-amide] 2-{[2-(3-(N′,N″-dimethyl-guanidino)-propylcarbamoyl)-1H-indol-6-yl-]-amide}]	≤ 50 µM	≤ 45.5 µM
N=C(N)NCCCNC(=O)c1ccc2[nH]c(C(=O)Nc3ccc4[nH]c(C(=O)NCCCNC(=N)N)cc4c3)cc2c1 [Compound 75, 1H-Indole-2,5-dicarboxylic acid 5-[(3-guanidino-propyl)-amide] 2-{[2-(3-guanidino-propylcarbamoyl)-1H-indol-5-yl-]-amide}]	≤ 50 µM	≤ 45.5 µM
CNC(=N)NCCCNC(=O)c1ccc2[nH]c(C(=O)Nc3ccc4[nH]c(C(=O)NCCCNC(=N)NC)cc4c3)cc2c1 [Compound 76, 1H-Indole-2,5-dicarboxylic acid S-[(3-(N′-methyl-guanidino)-propyl)-amide] 2-[[2-(3-(N′-methyl-guanidino)-propylcarbamoyl)-1H-indol-5-yl-]-amide)]	≤ 50 µM	≤ 45.5 µM
C/N=C(\NC)NCCCNC(=O)c1ccc2[nH]c(C(=O)Nc3ccc4[nH]c(C(=O)NCCCN/C(=N/C)NC)cc4c3)cc2c1 [Compound 77, 1H-Indole-2,5-dicarboxylic acid 5-[(3-(N′,N″-dimethyl-guanidino)-propyl)-amide] 2-{[2-(3-(N′,N″-dimethyl-guanidino)-propylcarbamoyl)-1H-indol-5-yl-]-amide}]	≤ 50 µM	≤ 45.5 µM
CC(C)Cn1cc(NC(=O)c2cc3cc(C(=O)NCCNC(=N)N)ccc3[nH]2)cc1C(=O)NCCNC(=N)N [Compound 80, 1H-Indole-2,5-dicarboxylic acid 5-[(2-guanidino-ethyl)-amide] 2-{[5-(2-guanidino-ethylcarbamoyl)-1-isobutyl-1H-pyrrol-3-yl]-amide)]	≤ 50 µM	≤ 45.5 µM
CNC(=N)NCCNC(=O)c1ccc2[nH]c(C(=O)Nc3cc(C(=O)NCCNC(=N)NC)n(CC(C)C)c3)cc2c1 [Compound 81, 1H-Indole-2,5-dicarboxylic acid 2-({1−isobutyl-5-[2-(N′-methyl-guanidino)-ethylcarbamoyl]-1H-pyrrol-3-yl}amide) 5-{[2-(N′-methyl-guanidino)-ethyl]-amide}]	≤ 50 µM	≤ 45.5 µM
N=C(N)NCCNC(=O)c1ccc2[nH]c(C(=O)Nc3ccc4[nH]c(C(=O)NCCNC(=N)N)cc4c3)cc2c1 [Compound 82, 1H-Indole-2,5-dicarboxylic acid 5-[(2-guanidino-ethyl)-amide] 2-{[2-(2-guanidino-ethylcarbamoyl)-1H-indol-5-yl]-amide}]	≤ 50 µM	≤ 45.5 µM
CC(=N)NCCNC(=O)c1ccc2[nH]c(C(=O)Nc3ccc4[nH]c(C(=O)NCCNC(C)=N)cc4c3)cc2c1 [Compound 89]	≤ 50 µM	≤ 45.5 µM
CC/N=C(\NC)NCCNC(=O)c1ccc2[nH]c(C(=O)Nc3ccc4[nH]c(C(=O)NCCN/C(=N/CC)NC)cc4c3)cc2c1 [Compound 91, 1H-Indole-2,5-dicarboxylic acid 2-{[2-(N′-ethyl-N′-methylguanidino)ethyl]amide} 5-({2-[2-(N′-ethyl-N″-methylguanidino)ethylcarbamoyl]-1H-indol-5-yl}amide), dihydrochloride]	≤ 50 µM	≤ 45.5 µM
CN/C(=N\CCO)NCCNC(=O)c1ccc2[nH]c(C(=O)Nc3ccc4[nH]c(C(=O)NCCN/C(=N/CCO)NC)cc4c3)cc2c1 [Compound 92, 1H-Indole-2,5-dicarboxylic acid 2-({2-[N′-(2-hydroxyethyl)-N″-methylguanidino]ethyl}amide) 5-({2-(2-[N′-(2-hydroxyethyl)-N″-methylguanidino]ethylcarbamoyl)-1H-indol-5-yl}amide]dihydrochloride]	≤ 50 µM	≤ 45.5 µM
N=C(N)CCNC(=O)c1cc(NC(=O)c2ccc(C(=O)NCCNC(=N)N)cc2)cn1CC1CC1 [Compound 100, N-[5-(2-Carbamimidoyl-ethylcarbamoyl)-1-cyclopropylmethyl-1H-pyrrol-3-yl]-N′-(2-guanidino-ethyl)-terephthalamide]	≤ 50 µM	≤ 45.5 µM
CNC(=N)NCCNC(=O)c1cc2cc(NC(=O)c3cc4cc(NC(=N)NC)ccc4[nH]3)ccc2[nH]1 [Compound 108, 5-[(5-(N′-methyl-guanidine)-1H-indole-2-carbonyl)-amino]-1H-indole-2-carboxylic acid [2-(N′-methyl-guanidino)ethyl]-amide]	≤ 50 µM	≤ 45.5 µM
CNC(=N)NCCNC(=O)c1cc2cc(NC(=O)c3cc4cc(NC(=O)CNC(=N)NC)ccc4[nH]3)ccc2[nH]1 [Compound 110]	≤ 50 µM	≤ 45.5 µM
CC(C)Cn1cc(NC(=O)c2cc3cc(NC(=O)CCNC(=N)N)ccc3[nH]2)cc1C(=O)NCCC(=N)N [Compound 115, 5-(3-Guanidino-propionylamino)-1H-indole-2-carboxylic acid [5-(2-carbamimidoyl-ethylcarbamoyl)-1-isobutyl-1H-pyrrol-3-yl]-amide]	≤ 50 µM	≤ 45.5 µM
N=C(N)NCCNC(=O)c1ccc2[nH]c(C(=O)Nc3ccc4cc(C(=O)NCNC(=N)N)[nH]c4c3)cc2c1 [Compound 171, 1H-Indole-2,5-dicarboxylic acid 5-[(2-guanidino-ethyl)-amide] 2-{[2-(guanidinomethyl-carbamoyl)-1H-indol-6-yl]-amide}]	≤ 50 µM	≤ 45.5 µM
N=C(N)NCCNC(=O)c1ccc2[nH]c(C(=O)Nc3ccc4sc(C(=O)NCCNC(=N)N)cc4c3)cc2c1 [Compound 174, 1H-Indole-2,5-dicarboxylic acid 5-[(2-guanidino-ethyl)-amide] 2-{[2-(2-guanidino-ethylcarbamoyl)-benzo[b]thiophen-5-yl]-amide}]	≤ 50 µM	≤ 45.5 µM
N=C(N)NCCNC(=O)c1ccc2[nH]c(C(=O)Nc3ccc4cc(C(=O)NCCNC(=N)c5ccccn5)[nH]c4c3)cc2c1 [Compound 180, 1H-Indole-2,5-dicarboxylic acid 5-[(2-guanidinoethyl)amide] 2-[(2-{2-[(pyridine-2-carboximidoyl)amino]ethylcarbamoyl}-1H-indol-6-yl)amide]]	≤ 50 µM	≤ 45.5 µM
N=C(N)CCCNC(=O)c1cc2ccc(NC(=O)c3cc4cc(C(=O)NCCNC(=N)N)ccc4[nH]3)cc2[nH]1 [Compound 181, 1H-Indole-2,5-dicarboxylic acid 2-{[2-(3-carbamimidoylpropylcarbamoyl)-1H-indol-6-yl]amide} 5-[(2-guanidinoethyl)amide]]	≤ 50 µM	≤ 45.5 µM
